In publication PMC8760490, “Discovery of novel furanylbenzamide inhibitors that target oncogenic tyrosine phosphatase SHP2 in leukemia cells” (The Journal of Biological Chemistry, 2021):

These compounds were tested against T1, full-length SHP2 WT (SHP2-WT) (Homo sapiens, UniProt Q06124) (assay: DiFMUP fluorescence phosphatase inhibition assay, SHP2-WT activated with IRS-1 peptide). Conditions: DiFMUP at Km (60 μM), pH 6.0.
T1 construct: Recombinant human full-length SHP2 (1–594) WT and E76K mutants; made in house
Assay type: biochemical
Text: To test the synthesized compounds for their potential to inhibit SHP2 activity, a fluorescence intensity-based assay using 6,8-difluoro-4-methylumbelliferyl phosphate (DiFMUP) as the substrate was adapted for three recombinant SHP2 constructs: (1) the SHP2 catalytic domain (SHP2cat; residues 248–527), (2) the full-length SHP2-E76K oncogenic mutant, and (3) the full-length SHP2 WT (SHP2-WT). The recombinant SHP2 proteins were expressed and purified as described previously ([36]). A dually phosphorylated peptide derived from the insulin receptor substrate 1 (IRS-1) served as a surrogate binding protein and was used to activate SHP2-WT ([30], [36]). […] Michaelis–Menten experiments to determine the DiFMUP Michaelis–Menten constant (Km) for each SHP2 construct were performed as described previously ([36]) and yielded the following values: SHP2-WT, Km = 60 μM; SHP2-E76K, Km = 20 μM; and SHP2cat, Km = 20 μM. Relative maximum rates (Vmax) of the DiFMUP reactions expressed as relative fluorescence units per minute (RFU/min) were as follows: SHP2-WT, Vmax = 871 RFU/min; SHP2-E76K, Vmax = 2730 RFU/min; and SHP2cat, Vmax = 2912 RFU/min. IC50 values for each compound were determined from initial rates in 10-point dose–response assays using DiFMUP at a concentration corresponding to its Km value for the respective SHP2 construct. […] Replacements for the benzothiophenone were explored using analog #10.
Recombinant human full-length SHP2 (1–594) WT and E76K mutants, as well as the SHP2cat (248–527), were expressed and purified as described before ([36], [41]). Recombinant human PTP1B (1–300) and the codon-optimized STEP (280–566) catalytic domains were cloned into PET-15b and expressed as N-His-tagged fusion proteins. For expression, transformed BL21(DE3) cells were grown and induced similar as described for SHP2. Collected cells were resuspended in lysis buffer (25 mM Tris, pH 7.5, 300 mM NaCl, 50 mM imidazole, and 10% glycerol) with 100 mg/l RNaseA and were lysed with two passages using a microfluidizer. The lysate was clarified by centrifugation at 15,000g for 50 min and applied to nickel–nitrilotriacetic acid resin. The column resin was washed, and the PTP1B or STEP protein was eluted in lysis buffer at 300 mM imidazole. The PTP1B or STEP protein was further purified by S75 size-exclusion chromatography in 50 mM Tris, pH 7.5, 50 mM NaCl. The eluted peak fractions were supplemented with tris(2-carboxyethyl)phosphine to 10 mM, concentrated by ultrafiltration, and stored at −80 °C. The purified yield of PTP1B was 33 mg/l cell culture; the yield of STEP was 16 mg/l cell culture.
SHP2 inhibitors were tested at RT in a 384-well plate format standard phosphatase fluorescence intensity assay using DiFMUP (Invitrogen/Thermo Fisher Scientific) as a substrate and a total reaction volume of 25 μl. SHP2 inhibitors or vehicle (DMSO) were spotted in triplicate into a black Greiner FLUOTRAC 200 384-well microplate (catalog no.: 781076; Greiner) for a 10-point dose–response assay using an Echo 555 Liquid Handler (Labcyte, Inc). PTP working solutions were prepared at a 0.625 nM concentration (for a final concentration of 0.5 nM) in buffer containing 50 mM Bis–Tris, pH 6.0, 50 mM NaCl, 5 mM DTT, and 0.01% Tween-20. Prior to the assay, a dually phosphorylated IRS-1 peptide (625 nM [500 nM final] ([30])) was added to full-length WT SHP2 working solutions and incubated for 20 min. DiFMUP working solutions at 5× final concentration were prepared in 50 mM Bis–Tris, pH 6.0, 50 mM NaCl, and 0.01% Tween-20. About 20 μl of PTP working solution was dispensed into the microplate and incubated with inhibitor for 20 min at RT. […] The reaction was initiated by addition of 5 μl DiFMUP working solutions. Fluorescence intensity was measured in kinetic mode (every minute for 7 or 10 min) using a Tecan Spark Multimode Microplate Reader (Tecan) with an excitation wavelength of 360 nm and an emission wavelength of 460 nm. […]

Structure (SMILES)	IC50 [µM]
Nc1ccc(NC(=O)c2cc(-c3ccc(/C=C4\Sc5ccccc5C4=O)o3)ccc2O)cc1 [SBI-2130, (Z)-N-(4-Aminophenyl)-2-hydroxy-5-(5-((3-oxobenzo[b]thiophen-2(3H)-ylidene)methyl)furan-2-yl)benzamide]	5
O=C1CCCC1=Cc1ccc(-c2ccc(O)c(C(=O)Nc3ccccc3)c2)o1 [SBI-3192, 2-Hydroxy-5-(5-((2-oxocyclopentylidene)methyl)furan-2-yl)-N-phenylbenzamide]	4.1
N#Cc1cc(-c2ccc(/C=C3\Sc4ccccc4C3=O)o2)ccc1O [SBI-3404, (Z)-2-Hydroxy-5-(5-((3-oxobenzo[b]thiophen-2(3H)-ylidene)methyl)furan-2-yl)benzonitrile]	11
O=C1/C(=C/c2ccc(-c3ccc(O)c(-c4nn[nH]n4)c3)o2)Sc2ccccc21 [SBI-3405, (Z)-2-((5-(4-Hydroxy-3-(2H-tetrazol-5-yl)phenyl)furan-2-yl)methylene)benzo[b]thiophen-3(2H)-one]	4.2
O=C(Nc1ccccc1)c1cc(-c2ccc(/C=C3\Sc4ccccc4C3=O)o2)ccc1O [SBI-4668, (Z)-2-Hydroxy-5-(5-((3-oxobenzo[b]thiophen-2(3H)-ylidene)methyl)furan-2-yl)-N-phenylbenzamide]	15
